The values below come from ChEMBL document CHEMBL3112506, “Synthesis and structure-activity relationship studies of 4-((2-hydroxy-3-methoxybenzyl)amino)benzenesulfonamide derivatives as potent and selective inhibitors of 12-lipoxygenase” (J Med Chem, 2014).

Structures are written as SMILES. Calls of active or inactive are those of the source. The calls are words filed in the database; no cut-off is given here.

One series is filed under the species Rattus norvegicus. The series can be described thus: Metabolic stability in rat assessed as glucuronidation. It is filed as ADME, organism-based. The settings on record: in vitro.
The target in series [1] is T1, Polyunsaturated fatty acid lipoxygenase ALOX15 (Homo sapiens, UniProt P16050).
T1 sequence (P16050 whole entry): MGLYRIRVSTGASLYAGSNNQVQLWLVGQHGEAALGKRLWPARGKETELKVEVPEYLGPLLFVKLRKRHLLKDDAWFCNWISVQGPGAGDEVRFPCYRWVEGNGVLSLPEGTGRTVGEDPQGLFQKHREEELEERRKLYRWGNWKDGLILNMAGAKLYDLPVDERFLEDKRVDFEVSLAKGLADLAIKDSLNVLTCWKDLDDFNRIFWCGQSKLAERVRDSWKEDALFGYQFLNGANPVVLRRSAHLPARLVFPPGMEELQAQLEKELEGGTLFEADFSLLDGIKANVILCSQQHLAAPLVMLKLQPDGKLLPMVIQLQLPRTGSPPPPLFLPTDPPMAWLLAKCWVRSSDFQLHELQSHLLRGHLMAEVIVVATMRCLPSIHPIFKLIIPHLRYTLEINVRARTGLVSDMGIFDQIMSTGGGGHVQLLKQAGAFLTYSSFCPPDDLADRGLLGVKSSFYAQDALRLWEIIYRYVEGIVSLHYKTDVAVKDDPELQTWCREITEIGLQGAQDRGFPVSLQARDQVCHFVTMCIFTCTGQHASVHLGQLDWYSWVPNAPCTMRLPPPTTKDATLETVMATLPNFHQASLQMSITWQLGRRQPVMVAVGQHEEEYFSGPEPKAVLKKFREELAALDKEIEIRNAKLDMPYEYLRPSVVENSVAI

In series [2] the test system is Mus musculus. Briefly: AUC (infinity) in CD-1 mouse at 30 mg/kg, po. It is filed as ADME, organism-based, Plasma. Set-up: time infinity, dose 30 mg/kg, route oral. Conditions: in vivo.
Series [3] has as its system Mus musculus. Briefly: Cmax in CD-1 mouse at 30 mg/kg, po. It is filed as ADME, organism-based. Further details: dose 30 mg/kg, route oral. The settings on record: in vivo.
In series [4] the test system is Mus musculus. Briefly: Volume of distribution in CD-1 mouse at 3 mg/kg, iv. It is filed as ADME, organism-based. Further details: dose 3 mg/kg, route intravenous. Conditions: in vivo.
The subject of series [5] is Mus musculus. Briefly: AUC (infinity) in CD-1 mouse at 3 mg/kg, iv. It is filed as ADME, organism-based, Plasma. Further details: dose 3 mg/kg, route intravenous, time infinity. Conditions: in vivo.
For series [6], the system named is Mus musculus. The series can be described thus: Cmax in CD-1 mouse at 3 mg/kg, iv. It is filed as ADME, organism-based. Further details: dose 3 mg/kg, route intravenous. Conditions: in vivo.
Series [7] is described as follows: Aqueous solubility of the compound in PBS buffer at pH 7.4 by chemiluminescent nitrogen detection method. It is filed as physicochemical.
Series [8] is described as follows: Stability of the compound in presence of glutathione. It is filed as ADME.
Series [9] can be described thus: Stability of the compound in aqueous buffer at pH 2 to 9. It is filed as physicochemical.
Series [10] can be described thus: Stability of the compound in HEPES buffer at pH 7.3. It is filed as physicochemical.
Series [11] is described as follows: Metabolic stability in mouse liver microsomes measured over 1 hr in absence of NADPH. It is filed as ADME, Microsome. (Microsomes from liver hold many membrane-bound enzymes, among them those of drug oxidation.)
Another series has as its system Liver microsome. Briefly: Metabolic stability in rat liver microsomes measured over 1 hr in absence of NADPH. It is filed as ADME.
The target in series [12] is Cyclooxygenase (Homo sapiens) (UniProt P35354+P23219). The series can be described thus: Inhibition of COX1/COX2 (unknown origin) using arachidonic acid as substrate assessed as consumption of oxygen preincubated for 5 mins followed by substrate addition at 15 uM. It is filed as protein assay.
Series [13] in a line: Aqueous solubility of the compound in PBS buffer at pH 7.4 by LC-UV spectroscopic analysis. It is filed as physicochemical.
Series [14] has as its target T2, Polyunsaturated fatty acid lipoxygenase ALOX12 (Homo sapiens, UniProt P18054).
T2 sequence (P18054 whole entry): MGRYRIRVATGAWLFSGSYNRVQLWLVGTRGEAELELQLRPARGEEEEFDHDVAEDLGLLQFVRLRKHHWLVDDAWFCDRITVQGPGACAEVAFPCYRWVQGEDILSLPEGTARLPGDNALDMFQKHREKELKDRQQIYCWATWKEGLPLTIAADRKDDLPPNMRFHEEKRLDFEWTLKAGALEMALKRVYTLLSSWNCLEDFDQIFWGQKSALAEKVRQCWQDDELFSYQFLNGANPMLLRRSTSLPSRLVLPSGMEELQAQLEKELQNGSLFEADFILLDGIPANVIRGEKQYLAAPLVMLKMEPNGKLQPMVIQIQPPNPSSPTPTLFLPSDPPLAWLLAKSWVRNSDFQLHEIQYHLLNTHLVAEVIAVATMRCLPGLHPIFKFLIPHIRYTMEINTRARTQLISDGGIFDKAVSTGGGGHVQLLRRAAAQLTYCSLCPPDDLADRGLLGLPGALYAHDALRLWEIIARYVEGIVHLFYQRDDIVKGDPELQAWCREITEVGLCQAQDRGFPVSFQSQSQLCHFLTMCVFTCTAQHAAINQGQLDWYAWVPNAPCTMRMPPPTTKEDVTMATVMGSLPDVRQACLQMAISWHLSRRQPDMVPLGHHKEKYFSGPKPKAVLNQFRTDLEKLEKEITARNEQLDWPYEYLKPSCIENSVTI

In series [15] the target is T3, Polyunsaturated fatty acid lipoxygenase ALOX12 (Mus musculus) (UniProt P39655).
T3 sequence (whole entry): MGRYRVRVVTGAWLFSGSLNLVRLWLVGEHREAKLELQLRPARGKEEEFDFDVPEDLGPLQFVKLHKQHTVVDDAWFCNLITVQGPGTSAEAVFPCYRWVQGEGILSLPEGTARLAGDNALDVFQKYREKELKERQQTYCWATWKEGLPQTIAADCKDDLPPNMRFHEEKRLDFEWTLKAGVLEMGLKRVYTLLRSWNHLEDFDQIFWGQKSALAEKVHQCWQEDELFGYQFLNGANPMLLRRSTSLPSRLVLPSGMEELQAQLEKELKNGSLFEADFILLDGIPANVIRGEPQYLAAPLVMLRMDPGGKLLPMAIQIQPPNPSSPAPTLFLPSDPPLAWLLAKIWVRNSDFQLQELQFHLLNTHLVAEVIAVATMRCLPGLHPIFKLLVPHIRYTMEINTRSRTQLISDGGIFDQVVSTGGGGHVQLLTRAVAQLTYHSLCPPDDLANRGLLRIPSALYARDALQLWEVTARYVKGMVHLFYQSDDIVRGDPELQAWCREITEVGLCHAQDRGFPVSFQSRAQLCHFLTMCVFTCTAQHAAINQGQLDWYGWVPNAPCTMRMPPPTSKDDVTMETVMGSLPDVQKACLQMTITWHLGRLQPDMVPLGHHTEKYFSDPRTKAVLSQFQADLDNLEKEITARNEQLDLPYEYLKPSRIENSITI
The series can be described thus: Inhibition of 12-LOX in mouse BTC3 cells assessed as inhibition of arachidonic acid/calcium ionophore-induced 12-HETE production after 4 hrs by ELISA. It is filed as cell-based. (In general: An ELISA detects its analyte on a solid surface through an enzyme-linked reagent.)

Series [16] can be described thus: Stability of the compound in PBS buffer at pH 7.4 measured at 48 hrs. It is filed as physicochemical. The settings on record: read-out: Stability.
Series [17] can be described thus: Metabolic stability in mouse plasma assessed as compound remaining measured at 2 hrs. It is filed as ADME, cell-free. The settings on record: read-out: Stability.

A word on the IC50: it is the concentration at which inhibition is half-maximal. The low end stands for higher potency, the high end for lower potency. As a reminder, the AUC is the area under the concentration-time curve, a measure of exposure. High values mean high exposure, low ones low exposure. For orientation: Cmax means the highest concentration seen after dosing. A word on the Vd: it is a proportionality between amount in the body and measured concentration, not a real space. Low readings indicate little distribution into tissue, high ones wide distribution into tissue. What is called solubility is how much of the substance goes into solution per volume.

Turning to `O=S(=O)(Nc1nc2ccccc2s1)c1ccc(NCc2cccc(Cl)c2O)cc1`, in the series filed under Rattus norvegicus, the Stability result is recorded as “Unstable”. This compound displayed an IC50 in [1] of 1300 nM.
Turning to `COc1cccc(CNc2ccc(S(=O)(=O)Nc3nc4ccccc4s3)cc2)c1O` [VLX-1005], the values for the AUC with Mus musculus [2] and with Mus musculus [5] were 67 µM·h and 34 µM·h, respectively. The Cmax in the series with Mus musculus [3] worked out at 38 µM; with Mus musculus [6], 112 µM. In the series with Mus musculus [4], this compound registered a Vd of 0.55 L/kg. The solubility entry was “soluble” in series [7] and less than 5 µg/mL in series [13]. Besides, the Stability entry (in series [8]; in [9]; in [10]; in [11]; in the series with Liver microsome) was “Stable” throughout. The inhibition entry in [12] is “inactive”.
Compound `Nc1ccccc1CNc1ccc(S(=O)(=O)Nc2nccs2)cc1` gave an IC50 in series [14] of more than 40 µM.
Consider `O=S(=O)(Nc1nccs1)c1ccc(NCc2cccc(O)c2)cc1`, for which the IC50 in [14] is more than 40 µM.
Regarding `COc1cccc(CNc2ccc(S(=O)(=O)Nc3nc4ccccc4o3)cc2)c1O`, the solubility entry in series [7] is recorded as “soluble”. Further, in series [15], the inhibition entry was “Active”. Moreover, the remaining at 48 h in series [16] was determined as 100%. Besides, in series [17], the remaining at 2 h turned out to be 100%. Also, the Stability result (in [11]; in the series with Liver microsome) was “Stable” in each case. Moreover, the inhibition entry in series [12] is “inactive”.
`O=S(=O)(Nc1nccs1)c1ccc(NCc2ccccc2O)cc1` gave an IC50 in [14] of more than 40 µM.
For the compound `COc1cccc(CNc2ccc(S(=O)(=O)Nc3nc4ccccc4[nH]3)cc2)c1O`, in series [12], the inhibition entry was “inactive”.
`O=S(=O)(Nc1nccs1)c1ccc(NCc2ccccc2)cc1`: the IC50 in series [14] is more than 40 µM.
